The test system of assay [1] is LoVo Colon cell line. The experiment in a line: Cytotoxicity assay using LoVo colon cell line, SRB. The class given is cell-based. Particulars: Homo sapiens, 96 h; Cellular activity in LoVo cell; 4 days incubation, SRB; read-out: Inhibition of LoVo. The method in brief:
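LoVo cells (4000/well, RPMI 1640 with 10% FBS, 37 °C, 7% CO2) seeded overnight, then exposed 4 days to serial dilutions spanning 5 pM-20 μM or 170 pg/ml-10 μg/ml. Survival by SRB staining; IC50 from curves relative to untreated controls.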

Assay [2] has as its system 80S14 (p21-deficient) cells. The experiment in a line: Cytotoxicity assay using isogenic cell lines: IC50 in 80S14 (p21-deficient) cells, SRB. Particulars: Homo sapiens, 120 h; 80S14 (p21-deficient) cells, 5 days, SRB; class symbols; read-out: IC50 for 80S14. Format: cell-based, human. In outline:
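80S14 (p21-deficient) cells seeded at 12,000 cells/well overnight, then exposed 5 days at 37 °C to serial dilutions (5 pM–50 μM or 170 pg/ml–10 μg/ml). TCA-fixed, sulforhodamine B-stained, absorbance at 560 nm; IC50 taken from cytotoxicity curves versus untreated controls.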

Each structure is given as a SMILES string.

For `O=C(O)CCc1ccc(-c2cccc(-c3ccnc4c(C(=O)c5cccs5)cnn34)c2)cc1` [Example 457, 3-{3′-[3-(Thien-2-ylcarbonyl)pyrazolo[1,5-a]pyrimidin-7-yl]-1,1′-biphenyl-4-yl}propanoic acid], the IC50 lay within 0.1 to 1 µM in assay [1] and 10 to 50 µM in assay [2].

As for `O=Cc1ccc(-c2cccc(-c3ccnc4c(C(=O)c5cccs5)cnn34)c2)cc1` [Example 458, 3′-[3-(Thien-2-ylcarbonyl)pyrazolo[1,5-a]pyrimidin-7-yl]-1,1′-biphenyl-4-carbaldehyde], the values for the IC50 in assay [1] and in assay [2] were 0.1 to 1 µM and 1 to 10 µM, respectively.

For `O=C(c1cccs1)c1cnn2c(-c3cccc(-c4ccc(CNCCN5CCOCC5)cc4)c3)ccnc12` [Example 461, [7-(4′-{[(2-Morpholin-4-ylethyl)amino]methyl}-1,1′-biphenyl-3-yl)pyrazolo[1,5-a]pyrimidin-3-yl](thien-2-yl)methanone], the results for the IC50 in assay [1] and in assay [2] were 0.1 to 1 µM and 1 to 10 µM, respectively.

As for `CCN(CC)Cc1ccc(-c2cccc(-c3ccnc4c(C(=O)c5cccs5)cnn34)c2)cc1` [Example 462, (7-{4′-[(Diethylamino)methyl]-1,1′-biphenyl-3-yl}pyrazolo[1,5-a]pyrimidin-3-yl)(thien-2-yl)methanone], the values for the IC50 in assay [1] and in assay [2] were 0.1 to 1 µM and 1 to 10 µM, respectively.

With `CN(C)Cc1ccc(-c2cccc(-c3ccnc4c(C(=O)c5cccs5)cnn34)c2)cc1` [Example 463, (7-{4′-[(Dimethylamino)methyl]-1,1′-biphenyl-3-yl}pyrazolo[1,5-a]pyrimidin-3-yl)(thien-2-yl)methanone], the IC50 in assay [1] is less than 0.1 µM; in assay [2], less than 1 µM.

Take `CC(C)CC(=O)Nc1cccc(-c2ccnc3c(-c4cccc(N(C)C)c4)cnn23)c1` [Example 465, N-(3-{3-[3-(Dimethylamino)phenyl]pyrazolo[1,5-a]pyrimidin-7-yl}phenyl)-3-methylbutanamide]: the results for the IC50 in assay [1] and in assay [2] were less than 0.1 µM and less than 1 µM, respectively.

As for `CC(C)CC(=O)Nc1cccc(-c2ccnc3c(-c4ccc5[nH]ccc5c4)cnn23)c1` [Example 466, N-{3-[3-(1H-Indol-5-yl)pyrazolo[1,5-a]pyrimidin-7-yl]phenyl}-3-methylbutanamide], the results for the IC50 in assay [1] and in assay [2] were less than 0.1 µM and 1 to 10 µM, respectively.

In the case of `COc1cc(-c2cnn3c(-c4cccc(NC(=O)CC(C)C)c4)ccnc23)cc(OC)c1OC` [Example 467, 3-Methyl-N-{3-[3-(3,4,5-trimethoxyphenyl)pyrazolo[1,5-a]pyrimidin-7-yl]phenyl}butanamide], the IC50 in assay [1] is less than 0.1 µM; in assay [2], less than 1 µM.

On to `CC(C)CC(=O)Nc1cccc(-c2ccnc3c(-c4cccc5cccnc45)cnn23)c1` [Example 468, 3-Methyl-N-[3-(3-quinolin-8-ylpyrazolo[1,5-a]pyrimidin-7-yl)phenyl]butanamide], for which the IC50 is 0.1 to 1 µM in assay [1] and 1 to 10 µM in assay [2].

For `CC(C)CC(=O)Nc1cccc(-c2ccnc3c(-c4ccc(CO)cc4)cnn23)c1` [Example 469, N-(3-{3-[4-(Hydroxymethyl)phenyl]pyrazolo[1,5-a]pyrimidin-7-yl}phenyl)-3-methylbutanamide], the IC50 in assay [1] is 1 to 20 µM; in assay [2], 10 to 50 µM.

Take `COc1ccc(-c2cnn3c(-c4cccc(NC(=O)CC(C)C)c4)ccnc23)cc1` [Example 470, N-{3-[3-(4-Methoxyphenyl)pyrazolo[1,5-a]pyrimidin-7-yl]phenyl}-3-methylbutanamide]: the IC50 in assay [1] was in the range of 1 to 20 µM; in assay [2], 10 to 50 µM.

Turning to `CC(C)CC(=O)Nc1cccc(-c2ccnc3c(-c4cccc(Cl)c4)cnn23)c1` [Example 471, N-{3-[3-(3-Chlorophenyl)pyrazolo[1,5-a]pyrimidin-7-yl]phenyl}-3-methylbutanamide], the IC50 in assay [1] is 1 to 20 µM; in assay [2], 10 to 50 µM.

In the case of `CC(C)CC(=O)Nc1cccc(-c2ccnc3c(-c4ccc(Cl)cc4)cnn23)c1` [Example 472, N-{3-[3-(4-Chlorophenyl)pyrazolo[1,5-a]pyrimidin-7-yl]phenyl}-3-methylbutanamide], the IC50 in assay [1] fell in the range of 1 to 20 µM; in assay [2] it was 10 to 50 µM.

On to `CC(C)CC(=O)Nc1cccc(-c2ccnc3c(-c4cccc(Cl)c4Cl)cnn23)c1` [Example 473, N-{3-[3-(2,3-Dichlorophenyl)pyrazolo[1,5-a]pyrimidin-7-yl]phenyl}-3-methylbutanamide], for which the IC50 in assay [1] was 0.1 to 1 µM; in assay [2], 1 to 10 µM.

Consider `CC(C)CC(=O)Nc1cccc(-c2ccnc3c(-c4ccc(Cl)c(Cl)c4)cnn23)c1` [Example 474, N-{3-[3-(3,4-Dichlorophenyl)pyrazolo[1,5-a]pyrimidin-7-yl]phenyl}-3-methylbutanamide], for which the IC50 in assay [1] was in the range of 1 to 20 µM; in assay [2] it was 10 to 50 µM.

For the molecule `CC(C)CC(=O)Nc1cccc(-c2ccnc3c(-c4cc(Cl)cc(Cl)c4)cnn23)c1` [Example 475, N-{3-[3-(3,5-Dichlorophenyl)pyrazolo[1,5-a]pyrimidin-7-yl]phenyl}-3-methylbutanamide], the IC50 fell in the range of 1 to 20 µM in assay [1] and 1 to 10 µM in assay [2].

Regarding `Cc1cc(C)cc(-c2cnn3c(-c4cccc(NC(=O)CC(C)C)c4)ccnc23)c1` [Example 476, N-{3-[3-(3,5-Dimethylphenyl)pyrazolo[1,5-a]pyrimidin-7-yl]phenyl}-3-methylbutanamide], the IC50 in assay [1] is less than 0.1 µM; in assay [2] it was less than 1 µM.

Take `CC(C)CC(=O)Nc1cccc(-c2ccnc3c(-c4cccc(C(F)(F)F)c4)cnn23)c1` [Example 477, 3-Methyl-N-(3-{3-[3-(trifluoromethyl)phenyl]pyrazolo[1,5-a]pyrimidin-7-yl}phenyl)butanamide]: the values for the IC50 in assay [1] and in assay [2] were 1 to 20 µM and 10 to 50 µM, respectively.

In the case of `COc1cccc(-c2cnn3c(-c4cccc(NC(=O)CC(C)C)c4)ccnc23)c1` [Example 478, N-{3-[3-(3-Methoxyphenyl)pyrazolo[1,5-a]pyrimidin-7-yl]phenyl}-3-methylbutanamide], the IC50 was 1 to 20 µM in assay [1] and 10 to 50 µM in assay [2].

For `CCOc1cccc(-c2cnn3c(-c4cccc(NC(=O)CC(C)C)c4)ccnc23)c1` [Example 479, N-{3-[3-(3-Ethoxyphenyl)pyrazolo[1,5-a]pyrimidin-7-yl]phenyl}-3-methylbutanamide], the results for the IC50 in assay [1] and in assay [2] were 1 to 20 µM and 10 to 50 µM, respectively.

For the molecule `CC(C)CC(=O)Nc1cccc(-c2ccnc3c(-c4ccc(Oc5ccccc5)cc4)cnn23)c1` [Example 480, 3-Methyl-N-{3-[3-(4-phenoxyphenyl)pyrazolo[1,5-a]pyrimidin-7-yl]phenyl}butanamide], the IC50 in assay [1] lay within 1 to 20 µM; in assay [2] it was 10 to 50 µM.

`CC(C)CC(=O)Nc1cccc(-c2ccnc3c(-c4ccc5c(c4)OCO5)cnn23)c1` [Example 481, N-{3-[3-(1,3-Benzodioxol-5-yl)pyrazolo[1,5-a]pyrimidin-7-yl]phenyl}-3-methylbutanamide]: the IC50 was 0.1 to 1 µM in assay [1] and 1 to 10 µM in assay [2].

Consider `CC(C)CC(=O)Nc1cccc(-c2ccnc3c(-c4cccc(C#N)c4)cnn23)c1` [Example 482, N-{3-[3-(3-Cyanophenyl)pyrazolo[1,5-a]pyrimidin-7-yl]phenyl}-3-methylbutanamide], for which the IC50 in assay [1] lay within 1 to 20 µM; in assay [2], 10 to 50 µM.

Regarding `CC(=O)c1cccc(-c2cnn3c(-c4cccc(NC(=O)CC(C)C)c4)ccnc23)c1` [Example 483, N-{3-[3-(3-Acetylphenyl)pyrazolo[1,5-a]pyrimidin-7-yl]phenyl}-3-methylbutanamide], the IC50 in assay [1] lay in the range of 1 to 20 µM; in assay [2], 10 to 50 µM.

Consider `COc1ccc(-c2cnn3c(-c4cccc(NC(=O)CC(C)C)c4)ccnc23)cc1C=O` [Example 484, N-{3-[3-(3-Formyl-4-methoxyphenyl)pyrazolo[1,5-a]pyrimidin-7-yl]phenyl}-3-methylbutanamide], for which the IC50 in assay [1] fell in the range of 1 to 20 µM; in assay [2] it was 1 to 10 µM.

Turning to `CC(C)CC(=O)Nc1cccc(-c2ccnc3c(-c4cccc(-c5ccccc5)c4)cnn23)c1` [Example 485, N-{3-[3-(1,1′-Biphenyl-3-yl)pyrazolo[1,5-a]pyrimidin-7-yl]phenyl}-3-methylbutanamide], the results for the IC50 in assay [1] and in assay [2] were 1 to 20 µM and 10 to 50 µM, respectively.

As to `CC(C)CC(=O)Nc1cccc(-c2ccnc3c(-c4ccc(-c5ccccc5)cc4)cnn23)c1` [Example 486, N-{3-[3-(1,1′-Biphenyl-4-yl)pyrazolo[1,5-a]pyrimidin-7-yl]phenyl}-3-methylbutanamide], the IC50 in assay [1] fell in the range of 1 to 20 µM; in assay [2], 10 to 50 µM.

With `CC(C)CC(=O)Nc1cccc(-c2ccnc3c(-c4cccc(C=O)c4)cnn23)c1` [Example 487, N-{3-[3-(3-Formylphenyl)pyrazolo[1,5-a]pyrimidin-7-yl]phenyl}-3-methylbutanamide], the values for the IC50 in assay [1] and in assay [2] were 1 to 20 µM and 10 to 50 µM, respectively.

Take `CC(C)CC(=O)Nc1cccc(-c2ccnc3c(-c4cccc(CN5CCOCC5)c4)cnn23)c1` [Example 488, 3-Methyl-N-(3-{3-[3-(morpholin-4-ylmethyl)phenyl]pyrazolo[1,5-a]pyrimidin-7-yl}phenyl)butanamide]: the values for the IC50 in assay [1] and in assay [2] were 1 to 20 µM and 10 to 50 µM, respectively.

Take `CC(C)CC(=O)Nc1cccc(-c2ccnc3c(-c4cccc(CN5CCN(C)CC5)c4)cnn23)c1` [Example 489, 3-Methyl-N-[3-(3-{3-[(4-methylpiperazin-1-yl)methyl]phenyl}pyrazolo[1,5-a]pyrimidin-7-yl)phenyl]butanamide]: the IC50 in assay [1] is 1 to 20 µM; in assay [2], 1 to 10 µM.
